From patent US12077503B2, “Substituted cyclic amides and their use as herbicides” (FMC CORPORATION, priority 2015, dated 2024)

How the values were obtained:
Format in all cases: in vivo
[1] = test system: barnyardgrass (Echinochloa crus-galli); assay: Test G Pre-Emergence Protocol; conditions: Echinochloa crus-galli, pre-emergence, 312 h, evaluated after 13 days; for pest or weed control at 15.625 g/ha: 15.625 g ai/ha; for pest or weed control at 15.625 g/ha / pest or weed control at 250 g/ha: read-out: Barnyardgrass damage rating (100=total damage to plant; 0=no damage to plant); for pest or weed control at 62.5 g/ha: 62.5 g ai/ha, 100=total damage to plant, 0=no damage to plant, read-out: Barnyardgrass damage rating; for pest or weed control at 250 g/ha: 250 g ai/ha
Method in brief: (§1)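 Pre-emergence spray, 15.625/62.5/250 g/ha, vehicle acetone:water 50:50 + 0.5% Tween 20, applied 1 d after sowing. Glasshouse 24/16° C, 14 h light, 65% RH, watered twice daily. Visual damage rating at 13 d, 0–100 scale.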

corn (Zea mays) [2] = assay: Test G Pre-Emergence Protocol; conditions: Zea mays, pre-emergence, 312 h, evaluated after 13 days; for plant injury at 15.625 g/ha: 15.625 g ai/ha; for plant injury at 15.625 g/ha / plant injury at 250 g/ha: read-out: Corn damage rating (100=total damage to plant; 0=no damage to plant); for plant injury at 62.5 g/ha: 62.5 g ai/ha, 100=total damage to plant, 0=no damage to plant, read-out: Corn damage rating; for plant injury at 250 g/ha: 250 g ai/ha
Method in brief: as §1

[3] = test system: giant foxtail (Setaria faberi); assay: Test G Pre-Emergence Protocol; conditions: Setaria faberi, pre-emergence, 312 h, evaluated after 13 days; for pest or weed control at 15.625 g/ha: 15.625 g ai/ha; for pest or weed control at 15.625 g/ha / pest or weed control at 250 g/ha: read-out: Foxtail, Giant damage rating (100=total damage to plant; 0=no damage to plant); for pest or weed control at 62.5 g/ha: 62.5 g ai/ha, 100=total damage to plant, 0=no damage to plant, read-out: Foxtail, Giant damage rating; for pest or weed control at 250 g/ha: 250 g ai/ha
Method in brief: as §1

[4] = test system: ivy-leaved morning glory (Ipomoea hederacea); assay: Test G Pre-Emergence Protocol; conditions: Ipomoea, pre-emergence, 312 h, evaluated after 13 days; for pest or weed control at 15.625 g/ha: 15.625 g ai/ha; for pest or weed control at 15.625 g/ha / pest or weed control at 250 g/ha: read-out: Morningglory, Ivy-leaved damage rating (100=total damage to plant; 0=no damage to plant); for pest or weed control at 62.5 g/ha: 62.5 g ai/ha, 100=total damage to plant, 0=no damage to plant, read-out: Morningglory, Ivy-leaved damage rating; for pest or weed control at 250 g/ha: 250 g ai/ha
Method in brief: as §1

[5] = test system: redroot pigweed (Amaranthus retroflexus); assay: Test G Pre-Emergence Protocol; conditions: Amaranthus retroflexus, pre-emergence, 312 h, evaluated after 13 days; for pest or weed control at 15.625 g/ha: 15.625 g ai/ha; for pest or weed control at 15.625 g/ha / pest or weed control at 250 g/ha: read-out: Pigweed, Redroot damage rating (100=total damage to plant; 0=no damage to plant); for pest or weed control at 62.5 g/ha: 62.5 g ai/ha, 100=total damage to plant, 0=no damage to plant, read-out: Pigweed, Redroot damage rating; for pest or weed control at 250 g/ha: 250 g ai/ha
Method in brief: as §1

[6] = test system: velvetleaf (Abutilon theophrasti); assay: Test G Pre-Emergence Protocol; conditions: Abutilon theophrasti, pre-emergence, 312 h, evaluated after 13 days; for pest or weed control at 15.625 g/ha: 15.625 g ai/ha; for pest or weed control at 15.625 g/ha / pest or weed control at 250 g/ha: read-out: Velvetleaf damage rating (100=total damage to plant; 0=no damage to plant); for pest or weed control at 62.5 g/ha: 62.5 g ai/ha, 100=total damage to plant, 0=no damage to plant, read-out: Velvetleaf damage rating; for pest or weed control at 250 g/ha: 250 g ai/ha
Method in brief: as §1

[7] = test system: barnyardgrass (Echinochloa crus-galli); assay: Test G Post-Emergence Protocol; conditions: Echinochloa crus-galli, post-emergence, 312 h, read-out: Barnyardgrass damage rating; for pest or weed control at 15.625 g/ha: 15.625 g ai/ha, evaluated after 13 days (100=total damage to plant; 0=no damage to plant); for pest or weed control at 62.5 g/ha: 62.5 g ai/ha; for pest or weed control at 62.5 g/ha / pest or weed control at 250 g/ha: evaluated after 13 days, 100=total damage to plant, 0=no damage to plant; for pest or weed control at 250 g/ha: 250 g ai/ha
Method in brief: (§2)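 Seedlings grown 8 days in soil in a glasshouse (24/16 °C day/night, 14 h light, 65% humidity) were sprayed post-emergence with compound in acetone/water 50:50 plus 0.5% Tween 20 at 15.625, 62.5 or 250 g/ha. Damage was scored after 13 days on a 0–100 scale (100 = total damage).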

corn (Zea mays) [8] = assay: Test G Post-Emergence Protocol; conditions: Zea mays, post-emergence, 312 h, read-out: Corn damage rating; for plant injury at 15.625 g/ha: 15.625 g ai/ha, evaluated after 13 days (100=total damage to plant; 0=no damage to plant); for plant injury at 62.5 g/ha: 62.5 g ai/ha; for plant injury at 62.5 g/ha / plant injury at 250 g/ha: evaluated after 13 days, 100=total damage to plant, 0=no damage to plant; for plant injury at 250 g/ha: 250 g ai/ha
Method in brief: as §2

[9] = test system: giant foxtail (Setaria faberi); assay: Test G Post-Emergence Protocol; conditions: Setaria faberi, post-emergence, 312 h, read-out: Foxtail, Giant damage rating; for pest or weed control at 15.625 g/ha: 15.625 g ai/ha, evaluated after 13 days (100=total damage to plant; 0=no damage to plant); for pest or weed control at 62.5 g/ha: 62.5 g ai/ha; for pest or weed control at 62.5 g/ha / pest or weed control at 250 g/ha: evaluated after 13 days, 100=total damage to plant, 0=no damage to plant; for pest or weed control at 250 g/ha: 250 g ai/ha
Method in brief: as §2

[10] = test system: ivy-leaved morning glory (Ipomoea hederacea); assay: Test G Post-Emergence Protocol; conditions: Ipomoea, post-emergence, 312 h, read-out: Morningglory, Ivy-leaved damage rating; for pest or weed control at 15.625 g/ha: 15.625 g ai/ha, evaluated after 13 days (100=total damage to plant; 0=no damage to plant); for pest or weed control at 62.5 g/ha: 62.5 g ai/ha; for pest or weed control at 62.5 g/ha / pest or weed control at 250 g/ha: evaluated after 13 days, 100=total damage to plant, 0=no damage to plant; for pest or weed control at 250 g/ha: 250 g ai/ha
Method in brief: as §2

[11] = test system: redroot pigweed (Amaranthus retroflexus); assay: Test G Post-Emergence Protocol; conditions: Amaranthus retroflexus, post-emergence, 312 h, read-out: Pigweed, Redroot damage rating; for pest or weed control at 15.625 g/ha: 15.625 g ai/ha, evaluated after 13 days (100=total damage to plant; 0=no damage to plant); for pest or weed control at 62.5 g/ha: 62.5 g ai/ha; for pest or weed control at 62.5 g/ha / pest or weed control at 250 g/ha: evaluated after 13 days, 100=total damage to plant, 0=no damage to plant; for pest or weed control at 250 g/ha: 250 g ai/ha
Method in brief: as §2

[12] = test system: velvetleaf (Abutilon theophrasti); assay: Test G Post-Emergence Protocol; conditions: Abutilon theophrasti, post-emergence, 312 h, read-out: Velvetleaf damage rating; for pest or weed control at 15.625 g/ha: 15.625 g ai/ha, evaluated after 13 days (100=total damage to plant; 0=no damage to plant); for pest or weed control at 62.5 g/ha: 62.5 g ai/ha; for pest or weed control at 62.5 g/ha / pest or weed control at 250 g/ha: evaluated after 13 days, 100=total damage to plant, 0=no damage to plant; for pest or weed control at 250 g/ha: 250 g ai/ha
Method in brief: as §2

Work on `COc1cc(C2CN(C)C(=O)C2C(=O)Nc2cccc(F)c2F)cc(OC)c1F` (stereo not drawn) [Compound 1711] yielded a pest or weed control at 15.625 g/ha [1] of 30%, a pest or weed control at 62.5 g/ha [1] of 10% and a pest or weed control at 250 g/ha [1] of 80%. It also gave a plant injury at 15.625 g/ha (corn (Zea mays) [2]) of 0%, a plant injury at 62.5 g/ha (corn (Zea mays) [2]) of 0% and a plant injury at 250 g/ha (corn (Zea mays) [2]) of 20%. The pest or weed control at 15.625 g/ha [3] was 70%, the pest or weed control at 62.5 g/ha [3] was 70% and the pest or weed control at 250 g/ha [3] was 90%. For the same molecule, the pest or weed control at 15.625 g/ha [4] was 0%, the pest or weed control at 62.5 g/ha [4] was 10% and the pest or weed control at 250 g/ha [4] was 10%. It also gave a pest or weed control at 15.625 g/ha [5] of 0%, a pest or weed control at 62.5 g/ha [5] of 0% and a pest or weed control at 250 g/ha [5] of 0%. The pest or weed control at 15.625 g/ha [6] was 0%, the pest or weed control at 62.5 g/ha [6] was 0% and the pest or weed control at 250 g/ha [6] was 0%. For the same molecule, the pest or weed control at 15.625 g/ha [7] was 30%, the pest or weed control at 62.5 g/ha [7] was 70% and the pest or weed control at 250 g/ha [7] was 80%. The plant injury at 15.625 g/ha (corn (Zea mays) [8]) was 0%, the plant injury at 62.5 g/ha (corn (Zea mays) [8]) was 10% and the plant injury at 250 g/ha (corn (Zea mays) [8]) was 40%. For the same molecule, the pest or weed control at 15.625 g/ha [9] was 70%, the pest or weed control at 62.5 g/ha [9] was 80% and the pest or weed control at 250 g/ha [9] was 80%. It also gave a pest or weed control at 15.625 g/ha [10] of 10%, a pest or weed control at 62.5 g/ha [10] of 30% and a pest or weed control at 250 g/ha [10] of 70%. The pest or weed control at 15.625 g/ha [11] was 0%, the pest or weed control at 62.5 g/ha [11] was 0% and the pest or weed control at 250 g/ha [11] was 0%. The pest or weed control at 15.625 g/ha [12] was 0%, the pest or weed control at 62.5 g/ha [12] was 0% and the pest or weed control at 250 g/ha [12] was 0%.

In the case of `CN1C[C@H](c2cccc(C(C)(C)C#N)c2)[C@@H](C(=O)Nc2ccccc2S(C)(=O)=O)C1=O` (racemic) [Compound 1784], the pest or weed control at 15.625 g/ha [1] is reported as 0%, the pest or weed control at 62.5 g/ha [1] is reported as 10% and the pest or weed control at 250 g/ha [1] is reported as 10%. The plant injury at 15.625 g/ha (corn (Zea mays) [2]) was 0%, the plant injury at 62.5 g/ha (corn (Zea mays) [2]) was 0% and the plant injury at 250 g/ha (corn (Zea mays) [2]) was 0%. The pest or weed control at 15.625 g/ha [3] was 10%, the pest or weed control at 62.5 g/ha [3] was 0% and the pest or weed control at 250 g/ha [3] was 40%. It also gave a pest or weed control at 15.625 g/ha [4] of 0%, a pest or weed control at 62.5 g/ha [4] of 0% and a pest or weed control at 250 g/ha [4] of 10%. For the same molecule, the pest or weed control at 15.625 g/ha [5] was 0%, the pest or weed control at 62.5 g/ha [5] was 0% and the pest or weed control at 250 g/ha [5] was 0%. It also gave a pest or weed control at 15.625 g/ha [6] of 0%, a pest or weed control at 62.5 g/ha [6] of 0% and a pest or weed control at 250 g/ha [6] of 0%. It also gave a pest or weed control at 15.625 g/ha [7] of 0%, a pest or weed control at 62.5 g/ha [7] of 0% and a pest or weed control at 250 g/ha [7] of 0%. It also gave a plant injury at 15.625 g/ha (corn (Zea mays) [8]) of 0%, a plant injury at 62.5 g/ha (corn (Zea mays) [8]) of 0% and a plant injury at 250 g/ha (corn (Zea mays) [8]) of 0%. It also gave a pest or weed control at 15.625 g/ha [9] of 0%, a pest or weed control at 62.5 g/ha [9] of 0% and a pest or weed control at 250 g/ha [9] of 0%. For the same molecule, the pest or weed control at 15.625 g/ha [10] was 0%, the pest or weed control at 62.5 g/ha [10] was 0% and the pest or weed control at 250 g/ha [10] was 0%. It also gave a pest or weed control at 15.625 g/ha [11] of 0%, a pest or weed control at 62.5 g/ha [11] of 0% and a pest or weed control at 250 g/ha [11] of 0%. The pest or weed control at 15.625 g/ha [12] was 0%, the pest or weed control at 62.5 g/ha [12] was 0% and the pest or weed control at 250 g/ha [12] was 0%.
